US20240246968A1, “SMALL MOLECULE INHIBITORS OF KRAS G12C MUTANT” (Merck Sharp & Dohme LLC, priority 2021, published 2024)

Experiments:
MIA PaCa-2 cells = assay: Growth inhibition activity on KRAS-G12C mutant cell line (MIA PaCa-2), CellTiter-Glo 3D; assay type: cell-based, human; conditions: MIA PaCa-2, 3-day culture with compound
In short: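 Luminescence readout (CellTiter-Glo 3D) after 3 days of compound treatment at 37 °C, 5% CO2, 0.2% final DMSO, gave % growth inhibition versus no-compound wells, from which IC50 (nM) was derived; cells had been plated in 10% FBS RPMI1640 one day before dosing.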

[1] = target: Gppcp-bound recombinant K-Ras4B G12C mutant protein (amino acids 1-169, C51S/C80L/C118S) (Homo sapiens, UniProt P01116, C118S/C51S/C80L/G12C); assay: KRASG12C binding assay (LC-MS, compound binding rate); conditions: test compound final concentration 0.5 μM, 25° C., 1 hour
In short: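 Covalent adduct formation measured by deconvoluted intact-mass LC-MS after 1 h at 25 °C with compound at 0.5 μM final and 50 nM Gppcp-loaded KRAS G12C (residues 1-169, C51S/C80L/C118S). Buffer: TBS, 0.1 mM TCEP, 0.25 mM MgCl2, 50 μM Gppcp. Binding % = one-molecule adduct/(unbound + all adducts), binned A ≥80, B 60–80, C 40–60, D 20–40, E <20.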

[2] = target: T1, interaction between recombinant K-Ras4B G12C mutant protein and cRAF RAS-binding domain (cRAF-RBD) (Homo sapiens, UniProt P01116, G12C); assay: Inhibitory activity on interaction between KRAS G12C and cRAF (Alpha technology); assay type: biochemical; conditions: GMPPNP-bound KRAS G12C incubated with compound at 25° C. for 1 hour, then cRAF-RBD; Alpha signal
T1 construct: made in house; host or cells: E. coli
In short: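 Alpha readout of cRAF-RBD (aa 50-132) binding to KRAS G12C (aa 1-169) after 1.5 h RT, following 1 h, 25° C compound preincubation with GMPPNP-bound protein (pH 7.5 Tris, 1 mM MgCl2, TCEP, Tween 20). IC50 fitted from titrations, with GDP-bound KRAS as 100% and DMSO as 0% inhibition.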

Row | Structure (SMILES) | IC50 (MIA PaCa-2 cells) [µM] | IC50 [2] [µM] | IC50 (MIA PaCa-2 cells; Homo sapiens, MIA PaCa-2, 72 h) [µM] | binding rate [1]
1 | C=Cc1cc(C(=O)c2cc(F)c(NC(=O)/C=C/CNC3(C)CC3)c(F)c2)n2cccc(-c3c(OC)cc4c(nc(C)n4C)c3F)c12 (single isomer, unassigned) [Example 111-1, (E)-N-(2,6-difluoro-4-(8-(4-fluoro-6-methoxy-1,2-dimethyl-1H-benzo[d]imidazol-5-yl)-1-vinylindolizine-3-carbonyl)phenyl)-44-((1-methylcyclopropyl)amino)but-2-enamide] | 0.0465 | 0.00871 | – | A (A binding rate of 80% or more is rated “A”)
2 | Cc1nc2c(Cl)c(-c3cccn4c(C(=O)c5cc(F)c(NC(=O)/C=C/CNC6CCOCC6)c(F)c5)ccc34)c(C(F)(F)F)cc2n1C (single isomer, unassigned) [Example 57-2, (E)-N-(4-(8-(4-chloro-1,2-dimethyl-6-(trifluoromethyl)-1H-benzo[d]imidazol-5-yl)indolizine-3-carbonyl)-2,6-difluorophenyl)-4-((tetrahydro-2H-pyran-4-yl)amino)but-2-enamide] | 1.1 | 0.79 | – | A (A binding rate of 80% or more is rated “A”)
3 | Cc1nc2cc(-c3cccn4c(C(=O)c5cc(F)c(NC(=O)/C=C/CNC6CCOC(C)(C)C6)c(F)c5)ccc34)c(C(F)(F)F)cc2n1C (stereo not drawn) [Example 66] | – | 0.07 | 0.097 | A (A binding rate of 80% or more is rated “A”)
4 | Cc1cc2c(nc([C@@H](C)O)n2C)c(Cl)c1-c1cccn2c(C(=O)c3cc(F)c(NC(=O)/C=C/CNC(C)(C)C)c(F)c3)ccc12 [Example 98, (R,E)-4-(tert-butylamino)-N-(4-(8-(4-chloro-2-(1-hydroxyethyl)-1,6-dimethyl-1H-benzo[d]imidazol-5-yl)indolizine-3-carbonyl)-2,6-difluorophenyl)but-2-enamide] | – | 0.041 | 0.042 | A (A binding rate of 80% or more is rated “A”)
5 | Cc1nc2cc(-c3cccn4c(C(=O)c5cc(F)c(NC(=O)/C=C/CNC67CCC(F)(CC6)CC7)c(F)c5)ccc34)c(C(F)(F)F)cc2n1C [Example 85, (E)-N-(4-(8-(1,2-dimethyl-6-(trifluoromethyl)-1H-benzo[d]imidazol-5-yl)indolizine-3-carbonyl)-2,6-difluorophenyl)-4-((4-fluorobicyclo[2.2.2]octan-1-yl)amino)but-2-enamide] | – | 0.045 | 0.11 | A (A binding rate of 80% or more is rated “A”)
6 | COc1c(-c2cccn3c(C(=O)c4cc(F)c(NC(=O)/C=C/CNC5CCOCC5)c(F)c4)ccc23)c(C(F)(F)F)cc2c1nc(C)n2C (single isomer, unassigned) [Example 61-2, (E)-N-(2,6-difluoro-4-(8-(4-methoxy-1,2-dimethyl-6-(trifluoromethyl)-1H-benzo[d]imidazol-5-yl)indolizine-3-carbonyl)phenyl)-4-((tetrahydro-2H-pyran-4-yl)amino)but-2-enamide] | 0.01 | 0.028 | – | A (A binding rate of 80% or more is rated “A”)
7 | Cc1cc2c(nc(CC#N)n2C)c(Cl)c1-c1cccn2c(C(=O)c3cc(F)c(NC(=O)/C=C/CNC(C)(C)C)c(F)c3)ccc12 [Example 74, (E)-4-(tert-butylamino)-N-(4-(8-(4-chloro-2-(cyanomethyl)-1,6-dimethyl-1H-benzo[d]imidazol-5-yl)indolizine-3-carbonyl)-2,6-difluorophenyl)but-2-enamide] | – | 0.064 | 0.065 | A (A binding rate of 80% or more is rated “A”)

Continued, in another order:

Row | IC50 (MIA PaCa-2 cells) [µM] | IC50 [2] [µM] | IC50 (MIA PaCa-2 cells; Homo sapiens, MIA PaCa-2, 72 h) [µM] | Structure (SMILES) | binding rate [1]
8 | – | 0.046 | 0.025 | CO[C@H]1CC[C@H](NC/C=C/C(=O)Nc2c(F)cc(C(=O)c3ccc4c(-c5c(C(F)F)cc6c(nc(C)n6C)c5Cl)cccn34)cc2F)CC1 [Example 64, (E)-N-(4-(8-(4-chloro-6-(difluoromethyl)-1,2-dimethyl-1H-benzo[d]imidazol-5-yl)indolizine-3-carbonyl)-2,6-difluorophenyl)-4-(((1r,4r)-4-methoxycyclohexyl)amino)but-2-enamide] | A (A binding rate of 80% or more is rated “A”)
9 | – | 0.076 | 0.067 | CO[C@H]1CC[C@H](NC/C=C/C(=O)Nc2c(F)cc(C(=O)c3c[nH]c4c(-c5cc6nc(C)n(C)c6cc5C(F)(F)F)cccc34)cc2F)CC1 [Example 45, (E)-N-(4-(7-(1,2-dimethyl-6-(trifluoromethyl)-1H-benzo[d]imidazol-5-yl)-1H-indole-3-carbonyl)-2,6-difluorophenyl)-4-(((1r,4r)-4-methoxycyclohexyl)amino)but-2-enamide] | A (A binding rate of 80% or more is rated “A”)
10 | 0.27 | 0.16 | – | CO[C@H]1CC[C@H](NC/C=C/C(=O)Nc2c(F)cc(C(=O)c3ccc4c(-c5c(C)cc6c(ncn6C)c5Cl)cccn34)cc2F)CC1 (single isomer, unassigned) [Example 12-2, (E)-N-(4-(8-(4-chloro-1,6-dimethyl-1H-benzo[d]imidazol-5-yl)indolizine-3-carbonyl)-2,6-difluorophenyl)-4-(((1r,4r)-4-methoxycyclohexyl)amino)but-2-enamide] | B (a binding rate of 60% or more and less than 80% is rated “B”)
11 | – | 0.13 | 0.28 | CO[C@H]1CC[C@H](NC/C=C/C(=O)Nc2c(F)cc(C(=O)c3c(C4CC4)nc4c(-c5cc6nc(C)n(C)c6cc5C(F)(F)F)cccn34)cc2F)CC1 [Example 95, (E)-N-(4-(2-cyclopropyl-8-(1,2-dimethyl-6-(trifluoromethyl)-1H-benzo[d]imidazol-5-yl)imidazo[1,2-a]pyridine-3-carbonyl)-2,6-difluorophenyl)-4-(((1r,4r)-4-methoxycyclohexyl)amino)but-2-enamide] | A (A binding rate of 80% or more is rated “A”)
12 | – | 0.026 | 0.13 | C=Cc1cc(C(=O)c2cc(F)c(NC(=O)/C=C/CN[C@H]3CC[C@H](OC)CC3)c(F)c2)n2cccc(-c3c(C)cc4c(nc(C)n4C)c3Cl)c12 [Example 88, (E)-N-(4-(8(4-chloro-1,2,6-trimethyl-1H-benzo[d]imidazol-5-yl)-1-vinylindolizine-3-carbonyl)-2,6-difluorophenyl)-4-(((1r,4r)-4-methoxycyclohexyl)amino)but-2-enamide] | A (A binding rate of 80% or more is rated “A”)
13 | – | 0.077 | 0.078 | CO[C@H]1CC[C@H](NC/C=C/C(=O)Nc2c(F)cc(C(=O)c3ccc4c(-c5c(C6CC6)cc6c(nc(C)n6C)c5Cl)cccn34)cc2F)CC1 [Example 38] | A (A binding rate of 80% or more is rated “A”)
14 | – | 0.054 | 0.054 | Cc1nc2cc(-c3cccn4c(C(=O)c5cc(F)c(NC(=O)/C=C/CNC6CCOCC6)c(F)c5)ccc34)c(C(F)(F)F)cc2n1C [Example 24, (E)-N-(4-(8(1,2-dimethyl-6-(trifluoromethyl)-1H-benzo[d]imidazol-5-yl)indolizine-3-carbonyl)-2,6-difluorophenyl)-4-((tetrahydro-2H-pyran-4-yl)amino)but-2-enamide] | A (A binding rate of 80% or more is rated “A”)
15 | – | 0.075 | 0.14 | COc1nc2c(cc1-c1cccn3c(C(=O)c4cc(F)c(NC(=O)/C=C/CN[C@H]5CC[C@H](OC)CC5)c(F)c4)ccc13)nc(C)n2C [Example 33, (E)-N-(2,6-difluoro-4-(8-(5-methoxy-2,3-dimethyl-3H-imidazo[4,5-b]pyridin-6-yl)indolizine-3-carbonyl)phenyl)-4-(((1r,4r)-4-methoxycyclohexyl)amino)but-2-enamide] | A (A binding rate of 80% or more is rated “A”)
16 | – | 0.069 | 0.094 | CCc1cc2c(ncn2C)c(Cl)c1-c1cccn2c(C(=O)c3cc(F)c(NC(=O)/C=C/CN[C@H]4CC[C@H](OC)CC4)c(F)c3)ccc12 [Example 10, (E)-N-(4-(8-(4-chloro-6-ethyl-1-methyl-1H-benzo[d]imidazol-5-yl)indolizine-3-carbonyl)-2,6-difluorophenyl)-4-(((1r,4r)-4-methoxycyclohexyl)amino)but-2-enamide] | A (A binding rate of 80% or more is rated “A”)
17 | – | 0.051 | 0.12 | Cc1nc2cc(-c3cccn4c(C(=O)c5cc(F)c(NC(=O)/C=C/CNC6CCCOC6)c(F)c5)ccc34)c(C(F)(F)F)cc2n1C (stereo not drawn) [Example 78, (E)-N-(4-(8-(1,2-dimethyl-6-(trifluoromethyl)-1H-benzo[d]imidazol-5-yl)indolizine-3-carbonyl)-2,6-difluorophenyl)-4-((tetrahydro-2H-pyran-3-yl)amino)but-2-enamide] | A (A binding rate of 80% or more is rated “A”)
